The numbers were not newly measured in patent publication US20260284036A1 (priority 2023, published 2026), which cites them from elsewhere.

The conditions of the data set: administered orally; significant first-pass metabolism.

On to `C=CCN1CC[C@]23c4c5ccc(O)c4O[C@H]2C(=O)CC[C@@]3(O)[C@H]1C5` [naloxone], for which the apparent bioavailability is listed as 1-2%.
